Results on two compounds are retold here after EP2514430B1, “METHOD AND APPARATUS FOR SIMULTANEOUSLY MANUFACTURING ULTRA PURE BETULIN AND HIGHLY PURE BETULINIC ACID FROM BIRCH BARK” (Korea Institute of Energy Research, priority 2009, dated 2011).

SMILES strings stand for the structures. Values after ≈ are worked out from the molar mass of the structure shown. Read-outs that look alike come from different tables or passages of the source.

A short description of data set [1]: Solubility of betulin in single and mixed polar organic solvents. The following applies: organic solvent or mixture. The data set is classed as physicochemical. The source says: This recrystallization step is an intermediate step for obtaining ultrapure betulin of 99.5% or more and highly-pure betulinic acid of 95% or more. The outer bark and inner bark of a birch tree generally includes betulin, betulinic acid, lupeol (CAS 545-47-1) and polar pigment components. […] When the outer bark of a birch tree is extracted using such a polar organic solvent, a crude extract including 70 ∼ 83% of betulin, 4 ∼ 8% of betulinic acid and residual polar pigment components can be obtained. In this case, in order to use betulin and betulinic acid as intermediate materials for fine chemical products or medical supplies or additives for enhancing antiviral activity, the crude extract is recrystallized.
Preferably, a mixture of organic solvents having a density range of 0.91 g/mL ∼ 1.37 g/mL may be used. […] The crude extract is recrystallized using such a mixture of organic solvents to obtain a high-quality crystallized product (including a secondary crystallized product) including 94 ∼ 96.5% of betulin, 3 ∼ 4% of betulinic acid and residual polar pigment components, and then ultrapure betulin is produced using a 4-bed eluent swing continuous adsorption unit.

The test system of data set [2] is herpes simplex viruses. The following applies: betulin mixed with acyclovir; Gong et al. 2004; cited from earlier work.
Data set [3] relates to human prostatic cancer cells (LNCaP, PC-3, and DU-145) and fibroblast cells. The following applies: PC-3, DU-145 and fibroblast cells, US 2006/0154903; cited from earlier work.

Broadly, the solubility is the dissolved amount per volume that the medium holds.

`C=C(C)[C@@H]1CC[C@]2(CO)CC[C@]3(C)[C@H](CC[C@@H]4[C@@]5(C)CC[C@H](O)C(C)(C)[C@@H]5CC[C@]43C)[C@@H]12` [betulin]: the solubility is at most 40.7 mg/mL in data set [1] (chloroform, at 60.5°C, read-out: solubility of betulin in chloroform); 38.6 mg/mL (≈ 87.2 mM) in data set [1] (chloroform:ethanol 18:82 v/v, density = 0.91 g/mL, at 60.5°C, read-out: solubility of betulin in the mixed solvent of chloroform and ethanol); 140 mg/mL (≈ 316 mM) in data set [1] (chloroform:ethanol 57:43 v/v, density = 1.19 g/mL, at 60.5°C, read-out: solubility of betulin in the mixed solvent of chloroform and ethanol); 163 mg/mL (≈ 368 mM) in data set [1] (chloroform:ethanol 82:18 v/v, density = 1.37 g/mL, at 60.5°C, read-out: solubility of betulin in the mixed solvent of chloroform and ethanol); at most 23 mg/mL in data set [1] (ethanol, at 77.1°C, read-out: solubility of betulin in ethanol); at most 18.5 mg/mL in data set [1] (ethanol, at 78°C, read-out: solubility of betulin in ethanol). Besides, the solubility in data set [1] (ethyl acetate, at 60.5°C, read-out: solubility of betulin in ethyl acetate) was at most 40.7 mg/mL; in data set [1] (ethyl acetate, at 77.1°C, read-out: solubility of betulin in ethyl acetate), at most 23 mg/mL; in data set [1] (methanol, at 64.7°C, read-out: solubility of betulin in methanol), at most 6.73 mg/mL. The “antiviral effects to herpes simplex viruses” value in data set [2] is on record as “antiviral effects were provided”.
On to `C=C(C)[C@@H]1CC[C@]2(C(=O)O)CC[C@]3(C)[C@H](CC[C@@H]4[C@@]5(C)CCC(=O)C(C)(C)[C@@H]5CC[C@]43C)[C@@H]12` [butulonic acid], for which the “inhibiting the growth of human prostatic cancer cells and fibroblast cells” value in data set [3] is on record as “has an effect on inhibiting the growth”.
